Measured values from publication PMC7044277 (Nature Communications, 2020).
Several values for one entry are separate records, joined by “and”; a condition that tells them apart may be missing. Equal entries are not always repeated.

How the values were obtained:
Assay type in all cases: cell-based
Parameters in all cases: GPCRome screening signal at PTGIR / GPCRome screening signal at PTH1R / GPCRome screening signal at PTH2R / GPCRome screening signal at QRFP / GPCRome screening signal at RXFP2 / GPCRome screening signal at RXFP3 / GPCRome screening signal at RXFP4 / GPCRome screening signal at S1PR2 / GPCRome screening signal at S1PR3 / GPCRome screening signal at S1PR4 / GPCRome screening signal at S1PR5 / GPCRome screening signal at SCTR / GPCRome screening signal at SSTR2 / GPCRome screening signal at SSSTR / GPCRome screening signal at SSTR4 / GPCRome screening signal at SSTR5 / GPCRome screening signal at SUCNR1 / GPCRome screening signal at TA1 / GPCRome screening signal at TAAR2 / GPCRome screening signal at TAAR5 / GPCRome screening signal at TAAR6 / GPCRome screening signal at TAAR8 / GPCRome screening signal at TACR1 / GPCRome screening signal at TACR2 / GPCRome screening signal at TACR3 / GPCRome screening signal at TBXA2R / GPCRome screening signal at TSHR / GPCRome screening signal at UTS2R / GPCRome screening signal at VIPR2 / GPCRome screening signal at GPR68 no V2 Tail / GPCRome screening signal at GRM2 / GPCRome screening signal at GRM3: reference not given here
320 non-olfactory GPCRs [1] = biological target: T1, 320 non-olfactory GPCRs (Homo sapiens, UniProt Q9P1P5); conditions: receptor TAAR2
T1 construct: expressed in transfected cells; host or cells: HTLA cells
T1 sequence (Q9P1P5 whole entry): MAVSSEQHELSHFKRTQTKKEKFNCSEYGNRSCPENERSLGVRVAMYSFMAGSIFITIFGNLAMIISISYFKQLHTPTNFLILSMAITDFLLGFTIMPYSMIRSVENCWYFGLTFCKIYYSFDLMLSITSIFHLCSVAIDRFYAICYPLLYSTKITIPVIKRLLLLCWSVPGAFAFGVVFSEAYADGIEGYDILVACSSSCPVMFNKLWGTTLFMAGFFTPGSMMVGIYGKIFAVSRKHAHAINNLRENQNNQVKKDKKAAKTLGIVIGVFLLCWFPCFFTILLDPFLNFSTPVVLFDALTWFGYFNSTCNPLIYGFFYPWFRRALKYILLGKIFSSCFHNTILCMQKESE

320 non-olfactory GPCRs [2] = biological target: T2, 320 non-olfactory GPCRs (Homo sapiens, UniProt Q9UKP6); conditions: receptor UTS2R
T2 construct: expressed in transfected cells; host or cells: HTLA cells
T2 sequence (Q9UKP6 whole entry): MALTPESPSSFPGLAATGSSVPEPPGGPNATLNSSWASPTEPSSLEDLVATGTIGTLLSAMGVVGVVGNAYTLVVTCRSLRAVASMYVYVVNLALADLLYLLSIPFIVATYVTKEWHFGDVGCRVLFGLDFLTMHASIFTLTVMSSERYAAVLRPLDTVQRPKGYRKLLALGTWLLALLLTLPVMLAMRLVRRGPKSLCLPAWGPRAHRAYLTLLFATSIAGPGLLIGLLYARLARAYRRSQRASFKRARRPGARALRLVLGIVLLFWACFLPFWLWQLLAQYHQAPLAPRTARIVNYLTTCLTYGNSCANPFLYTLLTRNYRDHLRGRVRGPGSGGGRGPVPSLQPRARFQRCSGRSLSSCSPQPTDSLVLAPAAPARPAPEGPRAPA

320 non-olfactory GPCRs [3] = biological target: T3, 320 non-olfactory GPCRs (Homo sapiens, UniProt P32241); conditions: receptor VIPR1
T3 construct: expressed in transfected cells; host or cells: HTLA cells
T3 sequence (P32241 31-457): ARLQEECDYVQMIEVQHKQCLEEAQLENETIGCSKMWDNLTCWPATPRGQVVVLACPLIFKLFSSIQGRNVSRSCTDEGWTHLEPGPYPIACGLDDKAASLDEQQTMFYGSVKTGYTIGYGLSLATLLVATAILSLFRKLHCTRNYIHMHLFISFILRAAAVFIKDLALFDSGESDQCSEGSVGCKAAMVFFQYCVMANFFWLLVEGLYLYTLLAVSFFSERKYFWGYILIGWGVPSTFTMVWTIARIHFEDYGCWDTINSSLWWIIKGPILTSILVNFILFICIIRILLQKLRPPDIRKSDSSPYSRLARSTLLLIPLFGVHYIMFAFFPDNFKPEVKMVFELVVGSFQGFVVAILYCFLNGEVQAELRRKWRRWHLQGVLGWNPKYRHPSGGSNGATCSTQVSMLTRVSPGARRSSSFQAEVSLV

320 non-olfactory GPCRs [4] = biological target: T4, 320 non-olfactory GPCRs (Homo sapiens, UniProt P41587); conditions: receptor VIPR2
T4 construct: expressed in transfected cells; host or cells: HTLA cells
T4 sequence (P41587 24-438): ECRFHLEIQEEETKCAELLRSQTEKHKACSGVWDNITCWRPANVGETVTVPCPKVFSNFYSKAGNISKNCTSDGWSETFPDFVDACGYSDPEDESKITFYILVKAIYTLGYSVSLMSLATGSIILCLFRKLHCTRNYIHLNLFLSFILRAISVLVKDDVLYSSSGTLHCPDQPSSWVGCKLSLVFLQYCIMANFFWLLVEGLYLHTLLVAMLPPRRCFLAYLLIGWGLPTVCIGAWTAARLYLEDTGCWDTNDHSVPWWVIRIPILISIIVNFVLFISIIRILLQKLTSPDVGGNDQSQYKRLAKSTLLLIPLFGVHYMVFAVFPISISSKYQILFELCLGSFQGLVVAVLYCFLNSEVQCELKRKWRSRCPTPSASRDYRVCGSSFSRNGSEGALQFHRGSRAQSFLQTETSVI

[5] = Fig_5f, single replicate values
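For GPCRome agonism screen response in this document: fold over basal response of each receptor without drug.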

SMILES | GPCRome screening signal at TAAR2 (320 non-olfactory GPCRs [1]; [5]) | GPCRome screening signal at UTS2R (320 non-olfactory GPCRs [2]; [5]) | GPCRome screening signal at VIPR1 (320 non-olfactory GPCRs [3]; [5]) | GPCRome screening signal at VIPR2 (320 non-olfactory GPCRs [4]; [5]) | GPCRome agonism screen response (320 non-olfactory GPCRs [1]; replicate values, Fig_4g) | GPCRome agonism screen response (320 non-olfactory GPCRs [2]; replicate values, Fig_4g) | GPCRome agonism screen response (320 non-olfactory GPCRs [3]; replicate values, Fig_4g) | GPCRome agonism screen response (320 non-olfactory GPCRs [4]; replicate values, Fig_4g)
CCOc1ccccc1CCC(C)NCC1(O)CCCCC1.Cl (racemic) [Fig_5f] | 1.515 and 0.6858 and 1.3165 and 0.7903 | 1.327 and 1.1644 and 2.664 and 0.5292 | 1.328 and 1.861 and 1.314 and 1.467 | 0.8302 and 1.005 and 0.9541 and 0.5143 | – | – | – | –
CCOc1cccc2cc(C(C)NCC3(O)CCCCC3)oc12 (centres unmarked) [O4LE6] | – | – | – | – | 2.656 and 0.9121 and 0.6733 and 0.6661 | 1.786 and 2.312 and 1.032 | 0.8893 and 1.908 and 1.195 and 1.527 | 0.366 and 1.433 and 1.331 and 0.8644
